Measured values reported in patent publication US6825230B2, “Spiro and dispiro 1,2,4-trixolane antimalarials” (Medicines for Malaria Venture MMV, priority 2002, dated 2004).
Values after ≈ are worked out from the molar mass of the structure shown. Where two headings read alike, the source gives them in different places.

Key:
[1] = system: chloroquine-sensitive NF54 strain of P. falciparum; assay: In vitro antimalarial semiautomated microdilution assay ([3H]-hypoxanthine incorporation), NF54 strain; type: cell-based, Plasmodium falciparum; details: for IC50: Plasmodium falciparum
How it was run: (§1)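 IC50 comes from Logit regression of [3H]-hypoxanthine incorporation data. Intraerythrocytic P. falciparum taken from asynchronous stock cultures is exposed to OZ compounds in a semiautomated microdilution format.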

[2] = system: chloroquine-resistant K1 strain of P. falciparum; assay: In vitro antimalarial semiautomated microdilution assay ([3H]-hypoxanthine incorporation), K1 strain; type: cell-based, Plasmodium falciparum; details: for IC50: Plasmodium falciparum
How it was run: as §1

[3] = system: ANKA strain of P. berghei; assay: Single dose STI in vivo screen in infected mice; design: species or system Plasmodium berghei; details: for Survival (days) 10 mg/kg po: single 10 mg/kg po in 3% ethanol and 7% Tween 80; for Survival (days) 10 mg/kg po / Survival (days) 10 mg/kg SSV po / Survival (days) 10 mg/kg sc: untreated 6-7 days; for Activity (%) 10 mg/kg po: single 10 mg/kg po in 3% ethanol and 7% Tween 80 on day 1 post-infection; for Activity (%) 10 mg/kg po / Activity (%) 10 mg/kg SSV po / Activity (%) 10 mg/kg sc: percent reduction in parasitemia on day 3; for Survival (days) 10 mg/kg SSV po: single 10 mg/kg po in SSV; for Activity (%) 10 mg/kg SSV po: single 10 mg/kg po in standard suspending vehicle (SSV) on day 1 post-infection; for Survival (days) 10 mg/kg sc: single 10 mg/kg sc in 3% ethanol and 7% Tween 80; for Activity (%) 10 mg/kg sc: single 10 mg/kg sc in 3% ethanol and 7% Tween 80 on day 1 post-infection
[4] = system: Schistosoma mansoni adult worms (49-day-old); assay: Effect on adult schistosomes (49-day-old) in infected mice; type: in vivo; details: single 400 mg/kg per os; for % reduction of adult worms growth at day 49 after per os application of 400 mg/kg, TWR (%): 49-day-old adults, total worm reduction rate; for Adult worms day 49, per os 400 mg/kg, DEAD WORM (%): percentage of dead worm in the liver
Protocol: Mice were infected with 100 Schistosoma mansoni cercariae on day 49 post-treatment. Each group was treated per os with OZ compounds at single doses of 200, 400, and 600 mg/kg. Untreated mice served as the control. All groups were killed 4 weeks after treatment and the liver and intestine were removed and separated. The liver and intestine were compressed and alive male and female worms could be seen and counted.

P. berghei ANKA strain = assay: Divided 3x3 mg/kg and 3x1 mg/kg po doses in infected mice; type: in vivo, Plasmodium berghei; details: for Activity (%): percent reduction of parasitemia vs control on day 4
Protocol: Moro NMRI male mice (Fu Albino specific pathogen free) weighing 18±2 g were infected intravenously (i.v.) with 2×10^7 P. berghei ANKA strain-infected erythrocytes from donor mice on day 0 of the experiment. From donor mice with circa 30% parasitemia, heparinized blood was taken and diluted in physiological saline to 10^8 parasitized erythrocytes per ml. An aliquot (0.2 ml) of this suspension was injected i.v. into experimental and control groups of mice. […] Throughout the experiments, mice were kept in groups of three or five animals in Makrolon type II cages in an air-conditioned animal room at 22 to 23° C.
They were administered per os (p.o.) in a total volume of 0.01 ml per gram of mouse. The activity of the compound was determined by a variety of methods outlined in subsequent sections. Survival time was also recorded, and survival to day 30 post-infection was considered to be a cure.
The second experiment consists of administration of divided 3×3 mg/kg and 3×1 mg/kg po doses administered on days 1, 2, and 3 post-infection. On day 4 post-infection, blood smears of all animals were prepared and stained with Giemsa. […] Compounds were administered orally in the SSV vehicle.

[5] = NF54, 72 h, read-out: IC50 (ng/ml) NF54, chloroquine-sensitive NF54 strain, 72 h incubation
[6] = K1, 72 h, read-out: IC50 (ng/ml) K1, chloroquine-resistant K1 strain, 72 h incubation
[7] = chloroquine-sensitive NF54 strain, 72 h incubation
[8] = 3 × 1 mg/kg p.o. SSV on days 1, 2, 3 post-infection
[9] = 3 × 3 mg/kg p.o. SSV on days 1, 2, 3 post-infection

SMILES	IC50 [2, 6] [ng/mL]	Survival (days) 10 mg/kg po [3] [days]	Activity (%) 10 mg/kg po [3] [%]	Survival (days) 10 mg/kg SSV po [3] [days]	Activity (%) 10 mg/kg SSV po [3] [%]	Survival (days) 10 mg/kg sc [3] [days]	Activity (%) 10 mg/kg sc [3] [%]	% reduction of adult worms growth at day 49 after per os application of 400 mg/kg, TWR (%) [4] [%]	Adult worms day 49, per os 400 mg/kg, DEAD WORM (%) [4]	Survival (P. berghei ANKA strain; [8]) [days]	Activity (%) (P. berghei ANKA strain; [8])	Survival (P. berghei ANKA strain; [9]) [days]	Activity (%) (P. berghei ANKA strain; [9])	further results
O=C1COC2(CCC3(CC2)OOC2(O3)C3CC4CC(C3)CC2C4)OC1 (centres unmarked) [OZ130, Adamantane-2-spiro-3′-11′-oxo-1′,2′,4′,9′,13′-pentaoxadispiro[4.2.5.2]pentadecane]	0.62 (≈ 0.00177 µM)	9.0	98.8	8.0	98.9	7.3	98.6	0	8%	–	–	–	–	IC50 [1, 5]: 0.94 ng/mL (≈ 0.00268 µM)
O=C([C@H]1CC[C@]2(CC1)OOC1(O2)C2CC3CC(C2)CC1C3)N1CCN(c2ccccc2)CC1 (some centres unmarked) [OZ140]	5.9 (≈ 0.013 µM)	6.0	0	6.3	8	7.0	60	0	3%	–	–	–	–	IC50 [1, 5]: 8.2 ng/mL (≈ 0.0181 µM)
O=C(OC[C@H]1CC[C@]2(CC1)OOC1(O2)C2CC3CC(C2)CC1C3)N1CCN(c2ccccc2)CC1 (stereo partly drawn) [OZ148, cis-Adamantane-2-spiro-3′-1′,2′,4′-trioxaspiro[4.5]decane-8′-methyl 4-phenylpiperazine-1-carboxylate]	–	7.3	38	7.7	58	6.3	21	25	0%	–	–	–	–	IC50 ([1]; chloroquine-sensitive NF54 strain, 72 h incubation, read-out: IC50 (ng/ml) NF54): 16 ng/mL (≈ 0.0332 µM); IC50 ([2]; chloroquine-resistant K1 strain, 72 h incubation, read-out: IC50 (ng/ml) K1): 17 ng/mL (≈ 0.0352 µM)
OC12CC3CC(C1)C1(OOC4(CCC5(CC4)OCCO5)O1)C(C3)C2 (centres unmarked) [OZ153, 5-Hydroxyadamantane-2-spiro-3′-1′,2′,4′,9′,12′-pentaoxadispiro[4.2.4.2]tetradecane]	–	6.3	–	–	–	–	–	–	no dead	–	–	–	–	IC50 (ng/ml) NF54 [1, 7]: 19 ng/mL (≈ 0.0561 µM); IC50 (ng/ml) K1 ([2]; chloroquine-resistant K1 strain, 72 h incubation): 7.7 ng/mL (≈ 0.0228 µM); Activity (%) 10 mg/kg po ([3]; 10 mg/kg): 15%; Survival (days) 10 mg/kg SSV po ([3]; 10 mg/kg): 7.0 days; Activity (%) 10 mg/kg SSV po ([3]; 10 mg/kg): 23%; Survival (days) 10 mg/kg sc ([3]; 10 mg/kg): 6.3 days; Activity (%) 10 mg/kg sc ([3]; 10 mg/kg): 20%
CC1(C)COC(c2ccc([C@H]3CC[C@]4(CC3)OOC3(O4)C4CC5CC(C4)CC3C5)cc2)=N1 (some centres unmarked) [OZ154]	5 (≈ 0.0114 µM)	–	–	–	–	–	–	58	0%	–	–	–	–	IC50 (ng/ml) NF54 [1, 7]: 6.1 ng/mL (≈ 0.0139 µM); Survival (days) 10 mg/kg po ([3]; 10 mg/kg): 14.7 days; Activity (%) 10 mg/kg po ([3]; 10 mg/kg): 99.74%; Survival (days) 10 mg/kg SSV po ([3]; 10 mg/kg): 8.7 days; Activity (%) 10 mg/kg SSV po ([3]; 10 mg/kg): 81%; Survival (days) 10 mg/kg sc ([3]; 10 mg/kg): 7.7 days; Activity (%) 10 mg/kg sc ([3]; 10 mg/kg): 59%
O=C(C[C@H]1CC[C@]2(CC1)OOC1(O2)C2CC3CC(C2)CC1C3)N1CCOCC1 (some centres unmarked) [OZ189]	1.7 (≈ 0.00434 µM)	9.3	95	9.0	99.79	10.7	98	0	30%	–	–	–	–	IC50 [1, 5]: 3 ng/mL (≈ 0.00766 µM)
C1=C(c2ccccc2)CCC2(C1)OOC1(O2)C2CC3CC(C2)CC1C3 (centres unmarked) [OZ226, Adamantane-2-spiro-3′-8′-phenyl-1′,2′,4′-trioxaspiro[4.5]dec-7′-ene]	4 (≈ 0.0118 µM)	5.0	0	5.3	0	11.0	99.92	52	0%	–	–	–	–	IC50 [1, 5]: 4 ng/mL (≈ 0.0118 µM)
Oc1ccc(C2CCC3(CC2)OOC2(O3)C3CC4CC(C3)CC2C4)cc1 (centres unmarked) [compound 288]	–	–	–	–	–	–	–	–	–	8.4	49	10.2	99	–
CCOC(=O)CNCC1CCC2(CC1)OOC1(O2)C2CC3CC(C2)CC1C3.CS(=O)(=O)O (centres unmarked) [compound 290]	–	–	–	–	–	–	–	–	–	6.8	14	10.6	93	–
O=C1CN(C(=O)CC2CCC3(CC2)OOC2(O3)C3CC4CC(C3)CC2C4)CCN1 (centres unmarked) [compound 296]	–	–	–	–	–	–	–	–	–	7.8	49	9.4	94	–
O=C(CC1CCC2(CC1)OOC1(O2)C2CC3CC(C2)CC1C3)N1CCC(O)CC1 (centres unmarked) [compound 297]	–	–	–	–	–	–	–	–	–	6.4	22	9.4	89	–
NS(=O)(=O)c1ccc(NCC2CCC3(CC2)OOC2(O3)C3CC4CC(C3)CC2C4)cc1 (centres unmarked) [compound 298]	–	–	–	–	–	–	–	–	–	11	93	16.4	99.99	–
O=c1ccn(CC2CCC3(CC2)OOC2(O3)C3CC4CC(C3)CC2C4)cc1 (centres unmarked) [compound 302]	–	–	–	–	–	–	–	–	–	13.4	87	13.4	99.51	–
Cc1ccc(S(=O)(=O)O)cc1.NCCNC(=O)CC1CCC2(CC1)OOC1(O2)C2CC3CC(C2)CC1C3 (centres unmarked) [compound 305]	–	–	–	–	–	–	–	–	–	9.6	87	12.2	99.91	–
NC(=O)CNC(=O)CC1CCC2(CC1)OOC1(O2)C2CC3CC(C2)CC1C3 (centres unmarked) [compound 306]	–	–	–	–	–	–	–	–	–	11	85	7.6	99.75	–
